How the values were obtained:
Format in all cases: cell-based
receptor 5-HT4(a) = molecular target: T1, receptor 5-HT4(a) (Homo sapiens, UniProt Q13639); experiment: cAMP formation in transiently transfected COS-7 cells; conditions: COS-7, 1 μM agonist, 15 minutes
T1 construct: The entire coding region of the cDNAs of 5-HT4(a), 5-HT4(b), 5-HT4(c) and 5-T4(d) was subcloned; expressed in transfected cells; host or cells: COS-7 cells, transient, pRC/CMV vector
Procedure: (§1) The entire coding region of the cDNAs of 5-HT4(a), 5-HT4(b), 5-HT4(c) and 5-T4(d) was subcloned into a mammalian expression vector pRC/CMV (Invitrogen, Carlsbad, Calif.). The transfections were carried out using polyethyleneimine (PEI) as described in Boussif et al. (1995). The cells were transfected using a mixture of DNA and of PEI in a ratio of 20 μmol of PEI/mg of DNA in 0.9% NaCl. For the radioligand binding assays, the COS-7 cells were seeded into culture flasks of 1.5×10^4 mm^2 one day before the transfection, at a density of 1×10^7 cells/flask, incubated for six hours with plasmid DNA (150 μg/flask) and collected 48 hours after transfection. For the measurement of cAMP formation, the COS-7 cells were seeded onto twelve-well plates one day before transfection, at a density of 5×10^5 cells/well, incubated for six hours with plasmid DNA (4 to 8 μg/well according to the experiments) and assayed 24 hours after the transfection. The cells transfected with the receptor 5-HT4 cDNA constructs were compared with the “blank”-transfected cells, which were exposed to the unmodified pRC/CMV plasmid.
(§2) To measure intracellular cAMP accumulation, the transiently transfected COS-7 cells were incubated, 24 hours after transfection, in Dulbecco's modified Eagle medium (DMEM) containing 5 mM theophylline, 10 mM HEPES and 10 μM pargyline for 15 minutes at 37° C., in the presence of 5% CO2. […] The reaction was stopped by aspiration of the medium and addition of 500 μl of ice-cold ethanol. After one hour at room temperature, the cells were scraped, and everything was collected and freeze-dried. The pellet was resuspended in 350 μl of PBS and centrifuged for 5 min at 300 g. The cAMP was quantified in the supernatant using a radioimmunological assay (E.R.I.A. assay kit from Pasteur Diagnostics 79830). Student's t tests were carried out using the program Quick TEst.

receptor 5-HT4(b) = molecular target: T2, receptor 5-HT4(b) (Homo sapiens, UniProt Q13639); experiment: as above; conditions: COS-7, 1 μM agonist, 15 minutes
T2 construct: The entire coding region of the cDNAs of 5-HT4(a), 5-HT4(b), 5-HT4(c) and 5-T4(d) was subcloned; expressed in transfected cells; host or cells: COS-7 cells, transient, pRC/CMV vector; cDNA amplified from human brain and ileum RNA
Procedure: as §1, §2

[1] = system: “blank”-transfected COS-7 cells; experiment: cAMP formation in control COS-7 cells; conditions: 1 μM
Procedure: as §1, §2

h5-HT4(c) = molecular target: T3, h5-HT4(c) (Homo sapiens, UniProt Q13639); experiment: cAMP formation in stably transfected CHO cells; conditions: 1 μM, 15 minutes
T3 construct: The entire coding region of the 5-HT4(c) and 5-HT4(d) cDNAs was subcloned; expressed in transfected cells
Procedure: (§3) The entire coding region of the 5-HT4(c) and 5-HT4(d) cDNAs was subcloned into a mammalian expression vector pRC/CMV (Invitrogen, Carlsbad, Calif.). The CHO cells are stably transfected by electroporation (250 V, 960 μF) with the plasmid PRc/CMV, containing the clone h5-HT4(c) or h5-HT4(d), cleaved with the restriction enzyme Kpn1 (10 μg of plasmid for 10^7 cells). The cells are cultured in HAM-F12 medium supplemented with 10% of heat-inactivated foetal calf serum. […] Twelve days later, the clones are individualized and cultured in 12-well plates. […] For the radioligand binding assays or for the measurement of cAMP formation, the cells transfected with the receptor 5-HT4 cDNA constructs were compared with the “blank”-transfected cells, which were exposed to the unmodified pRC/CMV plasmid.
(§4) To measure intracellular cAMP accumulation, the stably transfected CHO cells were incubated in the HAM-F12 medium containing 5 mM theophylline, 10 mM HEPES and 10 μM pargyline, for 15 minutes at 37° C. in the presence of 5% CO2. […] The reaction was stopped by aspiration of the medium and addition of 500 μl of ice-cold ethanol. After one hour at room temperature, the cells were scraped, and everything was collected and freeze-dried. […] The cAMP was quantified in the supernatant using a radio-immunological assay (E.R.I.A. assay kit from Immunotech, Marseilles). […]

h5-HT4(d) = molecular target: T4, h5-HT4(d) (Homo sapiens, UniProt Q13639); experiment: cAMP formation in stably transfected CHO cells; conditions: 1 μM, 15 minutes
T4 construct: The entire coding region of the 5-HT4(c) and 5-HT4(d) cDNAs was subcloned; expressed in transfected cells
Procedure: as §3, §4

[2] = system: “blank”-transfected CHO cells; experiment: cAMP formation in control CHO cells; conditions: 1 μM
Procedure: The entire coding region of the 5-HT4(c) and 5-HT4(d) cDNAs was subcloned into a mammalian expression vector pRC/CMV (Invitrogen, Carlsbad, Calif.). The CHO cells are stably transfected by electroporation (250 V, 960 μF) with the plasmid PRc/CMV, containing the clone h5-HT4(c) or h5-HT4(d), cleaved with the restriction enzyme Kpn1 (10 μg of plasmid for 10^7 cells). The cells are cultured in HAM-F12 medium supplemented with 10% of heat-inactivated foetal calf serum. […] Twelve days later, the clones are individualized and cultured in 12-well plates. Clone selection is carried out by studying the stimulation of the cAMP formed in the presence of 1 μM serotonin. For the radioligand binding assays or for the measurement of cAMP formation, the cells transfected with the receptor 5-HT4 cDNA constructs were compared with the “blank”-transfected cells, which were exposed to the unmodified pRC/CMV plasmid.
as §4, with “ethanol.” for “ethanol. After one hour at room temperature, the cells were scraped, and everything was collected and freeze-dried.”

receptor 5-HT4(d) = receptor 5-HT4(d) (Homo sapiens, UniProt Q13639); experiment: cAMP formation in transiently transfected COS-7 cells; design: The entire coding region of the cDNAs of 5-HT4(a), 5-HT4(b), 5-HT4(c) and 5-T4(d) was subcloned; expressed in transfected cells; host or cells: COS-7 cells, transient, pRC/CMV vector; cDNA amplified from human brain and ileum RNA; conditions: COS-7, 1 μM agonist, 15 minutes
Procedure: The entire coding region of the cDNAs of 5-HT4(a), 5-HT4(b), 5-HT4(c) and 5-T4(d) was subcloned into a mammalian expression vector pRC/CMV (Invitrogen, Carlsbad, Calif.). The transfections were carried out using polyethyleneimine (PEI) as described in Boussif et al. (1995). The cells were transfected using a mixture of DNA and of PEI in a ratio of 20 μmol of PEI/mg of DNA in 0.9% NaCl. For the radioligand binding assays, the COS-7 cells were seeded into culture flasks of 1.5×10^4 mm^2 one day before the transfection, at a density of 1×10^7 cells/flask, incubated for six hours with plasmid DNA (150 μg/flask) and collected 48 hours after transfection. For the measurement of cAMP formation, the COS-7 cells were seeded onto twelve-well plates one day before transfection, at a density of 5×10^5 cells/well, incubated for six hours with plasmid DNA (4 to 8 μg/well according to the experiments) and assayed 24 hours after the transfection. […]
To measure intracellular cAMP accumulation, the transiently transfected COS-7 cells were incubated, 24 hours after transfection, in Dulbecco's modified Eagle medium (DMEM) containing 5 mM theophylline, 10 mM HEPES and 10 μM pargyline for 15 minutes at 37° C., in the presence of 5% CO2. […] The cAMP was quantified in the supernatant using a radioimmunological assay (E.R.I.A. assay kit from Pasteur Diagnostics 79830). […]

receptor 5-HT4(c) = receptor 5-HT4(c) (Homo sapiens, UniProt Q13639); experiment: as above; design: The entire coding region of the cDNAs of 5-HT4(a), 5-HT4(b), 5-HT4(c) and 5-T4(d) was subcloned; expressed in transfected cells; host or cells: COS-7 cells, transient, pRC/CMV vector; cDNA amplified from human brain and ileum RNA; conditions: for increase in the basal cAMP level: 1 μM
Procedure: as §1, §2
ML10375 is capable of reducing the cAMP levels in the cells expressing the 5-HT4(c) and 5-HT4(d) isoforms in the absence of any stimulation of the receptor by 5-HT4 agonists. To test the hypothesis that ML10375 may constitute a reverse agonist for the human receptor 5-HT4, the 5-HT4(c) isoform was overexpressed in COS-7 cells in order to increase the frequency of the spontaneously active state of the receptor. The COS-7 cells were transfected with 4 to 8 μg of plasmid DNA per well in order to obtain an increase in the expression levels of the receptor 5-HT4(c). […] (FIG. 6B).

Sequence of receptor 5-HT4(c) (Q13639 1-380 isoform Q13639-4): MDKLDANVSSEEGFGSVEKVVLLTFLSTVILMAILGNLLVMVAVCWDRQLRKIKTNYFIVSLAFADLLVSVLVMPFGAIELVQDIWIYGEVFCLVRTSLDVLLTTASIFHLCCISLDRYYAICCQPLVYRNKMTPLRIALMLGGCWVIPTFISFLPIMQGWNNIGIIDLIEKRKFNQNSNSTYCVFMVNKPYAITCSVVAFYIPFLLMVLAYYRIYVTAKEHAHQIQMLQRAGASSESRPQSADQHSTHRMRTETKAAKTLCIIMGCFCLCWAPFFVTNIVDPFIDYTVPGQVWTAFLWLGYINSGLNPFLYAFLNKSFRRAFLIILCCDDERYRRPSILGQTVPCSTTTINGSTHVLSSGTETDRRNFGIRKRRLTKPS
T1 sequence (Q13639 1-387 isoform Q13639-2): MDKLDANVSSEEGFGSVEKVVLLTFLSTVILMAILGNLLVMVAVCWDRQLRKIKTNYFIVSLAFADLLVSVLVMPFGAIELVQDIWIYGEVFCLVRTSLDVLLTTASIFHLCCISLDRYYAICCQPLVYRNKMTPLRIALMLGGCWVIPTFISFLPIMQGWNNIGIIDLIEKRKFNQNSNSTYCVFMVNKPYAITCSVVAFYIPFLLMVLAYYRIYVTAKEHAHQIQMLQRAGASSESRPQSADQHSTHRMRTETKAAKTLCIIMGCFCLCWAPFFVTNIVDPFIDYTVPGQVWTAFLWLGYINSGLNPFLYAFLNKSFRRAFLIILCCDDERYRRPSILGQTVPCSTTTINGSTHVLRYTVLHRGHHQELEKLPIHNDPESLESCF
T3 sequence (Q13639 1-380 isoform Q13639-4): as the sequence (Q13639 1-380 isoform Q13639-4) above
Sequence of receptor 5-HT4(d) (Q13639 1-360 isoform Q13639-3): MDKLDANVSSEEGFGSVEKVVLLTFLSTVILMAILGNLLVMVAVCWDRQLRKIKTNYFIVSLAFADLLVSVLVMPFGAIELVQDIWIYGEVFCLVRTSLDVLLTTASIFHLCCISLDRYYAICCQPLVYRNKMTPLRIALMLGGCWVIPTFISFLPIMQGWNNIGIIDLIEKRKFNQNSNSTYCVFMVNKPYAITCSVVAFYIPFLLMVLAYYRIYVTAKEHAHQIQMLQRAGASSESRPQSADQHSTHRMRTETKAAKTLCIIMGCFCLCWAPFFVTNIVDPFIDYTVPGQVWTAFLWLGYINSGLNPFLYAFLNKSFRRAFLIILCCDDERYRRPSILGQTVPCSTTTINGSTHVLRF
T4 sequence (Q13639 1-360 isoform Q13639-3): as above
T2 sequence (Q13639 whole entry): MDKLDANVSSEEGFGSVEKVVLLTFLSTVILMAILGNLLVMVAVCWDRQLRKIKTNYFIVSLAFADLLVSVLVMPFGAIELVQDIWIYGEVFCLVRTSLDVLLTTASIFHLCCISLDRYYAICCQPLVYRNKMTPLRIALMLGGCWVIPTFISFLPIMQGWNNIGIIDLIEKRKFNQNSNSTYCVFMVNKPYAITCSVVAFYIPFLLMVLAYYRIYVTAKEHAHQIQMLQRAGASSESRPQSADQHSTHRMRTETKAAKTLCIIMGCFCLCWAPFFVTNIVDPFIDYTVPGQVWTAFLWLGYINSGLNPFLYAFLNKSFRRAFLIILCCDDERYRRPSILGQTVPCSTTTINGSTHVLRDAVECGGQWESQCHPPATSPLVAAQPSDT

NCCc1c[nH]c2ccc(O)cc12 [5-HT, 5-hydroxytryptamine]
increase in cAMP concentration (receptor 5-HT4(a)): 82% | increase in cAMP concentration (receptor 5-HT4(b)): 85% | effect on basal adenylate cyclase activity / basal cAMP levels [1]: no effect | increase in cAMP concentration (h5-HT4(c)): 91% | increase in cAMP concentration (h5-HT4(d)): 118% | effect on cAMP [2]: no effect | increase in cAMP concentration (receptor 5-HT4(d)): 77% | increase in cAMP concentration (receptor 5-HT4(c); COS-7, 1 μM agonist, 15 minutes): 64% | increase in the basal cAMP level (receptor 5-HT4(c); COS-7 transfected with 4 μg of plasmid DNA): 64% | increase in the basal cAMP level (receptor 5-HT4(c); COS-7 transfected with 8 μg of plasmid DNA): did not significantly increase

Source: patent publication US6506580B1, “Splice variants for human 5-HT4 serotonin receptor and their applications, in particular for screening” (Institut National de la Sante et de la Recherche Medicale …, priority 1997, dated 2003)
